Reference: patent publication US20220331500A1, “DIALYZER” (SCHOOL JURIDICAL PERSON THE KITASATO INSTITUTE, priority 2019, published 2022)
Where two headings read alike, the source gives them in different places.

Assays:
[1] = NO donor, NO release; cited from earlier work
Sprague Dawley rats [2] = details: all groups (40, 80, 120 μM sodium nitrite)
Experimental: (§1) Male Sprague Dawley rats (body weight: 300 g to 400 g) that were 8 to 12 weeks old were used. The rats were inhaled and anesthetized using isoflurane 1.5% to 3.0% as an anesthetic. Blood was removed from the carotid artery, and blood was returned into the tail vein. The blood flow rate was 0.5 mL/min to 1.0 mL/min, the dialysate flow rate was 3 mL/min, and the blood dialysis was performed for 4 hours by a parallel flow operation. Heparin was administered at 0.7 units/g at the start of dialysis.
(§2) Dialysates in which the sodium nitrite concentration was adjusted to be 40 μM, 80 μM, and 120 μM were used. As a control group, a dialysate containing no sodium nitrite was used.
(§3) During the experiment, arterial pressure, dialyzer inlet pressure, and venous pressure were measured at intervals of 15 minutes. Additionally, methemoglobin (Met-Hb) was measured at the start of the experiment and then at intervals of 60 minutes. Additionally, after the circulation was ended, the dialyzer was washed, and the amount of residual blood hemoglobin (Hb) amount and the activity value of residual blood lactate dehydrogenase (LDH) were measured.

Sprague Dawley rats [3] = tested on: Sprague Dawley rats
Experimental: as §1, §2, §3
After the end of 4 hours of circulation, the dialyzer was washed with 10 mL of Lactec Injection and then a 0.5% Triton (Registered trademark) solution was circulated for 2 hours. After that, an LDH activity value in a washing solution was measured using a commercially available kit (“Cytotoxicity Measurement KitPLUS (LDH)” made by Roche Diagnostics K.K.) and used as the residual blood LDH activity value.

Sprague Dawley rats [4] = tested on: Sprague Dawley rats; remark: listed apart in the source
Experimental: Blood dialysis of rats was performed by changing the amount of nitrite to be supplied to the dialysate, and the optimal concentration of nitrite was examined.
as §1
As the dialysis unit (dialyzer), a small rat dialyzer having a cellulose triacetate membrane, 140 hollow fibers, an effective length of 146 mm, and a membrane area of 0.014 m^2 were used.
as §2, §3
The experiment was performed with a circulation time of 4 hours. When the dialyzer inlet pressure or venous pressure exceeded 250 mmHg, the circulation was ended.

Sprague Dawley rats [5] = experiment: Residual blood LDH activity value and residual blood Hb in the dialyzer after 4 hours of circulation (NO gas); format: in vivo, rat; details: for amount of residual blood Hb: compared to control group
Experimental: (§4) NO gas of which the concentration was adjusted to 200 ppm, 400 ppm, and 800 ppm was added to the dialysate via a gas exchanger. As a control group, nitrogen gas (N2) was added to the dialysate instead of NO gas.
(§5) FIG. 3 is a schematic diagram showing the structure of a circulation circuit in which the dialyzer is connected to a rat. […] In a case where it was possible to perform the 4-hours circulation, the residual blood in the dialyzer was evaluated.
In FIG. 6, “Control” indicates the results of the control group, and “200 ppm”, “400 ppm”, and “800 ppm” indicate the results of a group in which NO gas of each concentration was supplied to the dialysate.

Sprague Dawley rats [6] = experiment: Methemoglobin (Met-Hb) during rat blood dialysis with NO gas; format: in vivo
Experimental: as §4

Sprague Dawley rats [7] = experiment: Rat blood dialysis with NO gas supplied to the dialysate: 4-hour circulation achievement rate; format: in vivo; details: for 4-hour circulation achievement rate: rat blood dialysis
Experimental: An extracorporeal perfusion type polymethylpentene membrane oxygenator was used for gas exchange.
as §4, §5
During the experiment, there was a case where the dialyzer inlet pressure or venous pressure increased, the blood coagulation in the dialyzer or the blood coagulation in the circuit were determined, and the circulation was stopped halfway. Thus, in all groups, the number of 4-hour circulation achievements with respect to the total number of experiments was calculated as the 4-hour circulation achievement rate.
FIG. 4 is a graph showing the 4-hour circulation achievement rate. In FIG. 4, “Control” indicates the results of the control group, and “200 ppm”, “400 ppm”, and “800 ppm” indicate the results of a group in which NO gas of each concentration was supplied to the dialysate.

Sprague Dawley rats [8] = experiment: Measurement of NO concentration in blood and dialysate during rat blood dialysis (OxiSelect Nitrite/Nitrate kit); format: in vivo; details: 800 ppm NO gas; blood (out) venous side vs blood (in) arterial side of dialysis unit; 1 hour
Experimental: as §4
For a group in which 800 ppm of NO gas was supplied to the dialysate, the dialysate was supplied to the blood (in) on an arterial side of the dialysis unit, the blood (out) on a venous side of the dialysis unit, the dialysate (in) in the dialysate supply channel for supplying the dialysate to the dialysis unit, and the dialysate (out) in the dialysate discharge channel for discharging the dialysate from the dialysis unit were collected 1 hour after the start of circulation, and the NO concentration was measured using a commercially available kit (“OxiSelect In Vitro Nitric Oxide (Nitrite/Nitrate) Assay Kit (Colorimetric)” made by Cell Biolabs, Inc.). The NO concentration was measured as the sum of the concentrations of NO2^− and NO3^− after the NO was completely hydrolyzed. For this reason, hereinafter, there is a case where the total concentration of […] is referred to as the NO concentration.

[9] = 80 μM sodium nitrite in dialysate, compared to control group
[10] = 120 μM sodium nitrite in dialysate, compared to control group
[11] = extrapolated from the 200-800 ppm results

CC(C)N(CCCN)/[N+]([O-])=N/O [NOC5]
Half-life [1]: 25 min

CNCCCN(C)/[N+]([O-])=N/O [NOC7]
Half-life [1]: 5 min

CCNCCN(CC)[N+]([O-])=NO [NOC12]
Half-life [1]: 100 min

NCCN(CCN)/[N+]([O-])=N/O [NOC18]
Half-life [1]: 1260 min

COCC(/C(C)=C/C(=N/O)C(N)=O)[N+](=O)[O-] (stereo not drawn) [NOR1]
Half-life [1]: 1.8 min

CC/C(=C\C(CNC(=O)c1cccnc1)=N\O)C(C)[N+](=O)[O-] (stereo not drawn) [NOR4]
Half-life [1]: 60 min

O=NO [sodium nitrite]
Met-Hb concentration (Sprague Dawley rats [2]): ≤ 2% | residual blood LDH activity value (Sprague Dawley rats [3]; 40 μM sodium nitrite in dialysate, compared to control group): significantly lower | residual blood LDH activity value (Sprague Dawley rats [3]; 80 μM and 120 μM as compared to 40 μM): lower value | amount of residual blood Hb (Sprague Dawley rats [3]; [9]): significantly lower | residual blood LDH activity value (Sprague Dawley rats [3]; [9]): significantly lower | amount of residual blood Hb (Sprague Dawley rats [3]; [10]): significantly lower | residual blood LDH activity value (Sprague Dawley rats [3]; [10]): significantly lower | blood pressure (arterial pressure) during circulation (Sprague Dawley rats [4]; 40 μM sodium nitrite in dialysate): stable for 4 hours | blood pressure (arterial pressure) during circulation (Sprague Dawley rats [4]; 80 μM sodium nitrite in dialysate): stable for 4 hours | blood pressure (arterial pressure) during circulation (Sprague Dawley rats [4]; 120 μM sodium nitrite in dialysate, vs control group): significantly lower | blood pressure (arterial pressure) during circulation (Sprague Dawley rats [4]; 120 μM sodium nitrite in dialysate, vs control group, listed as nitrite ions): slight decrease | 4 hours circulation (Sprague Dawley rats [4]; sodium nitrite groups (40, 80, 120 μM) and control): circulate stably for 4 hours

nitric oxide [NO gas]
amount of residual blood Hb (Sprague Dawley rats [5]; 200 ppm NO gas supplied to the dialysate): significantly lower | residual blood LDH activity value (Sprague Dawley rats [5]; 200 ppm NO gas supplied to the dialysate, compared to control group (N2), after 4 hours): significantly lower | amount of residual blood Hb (Sprague Dawley rats [5]; 400 ppm NO gas supplied to the dialysate): significantly lower | residual blood LDH activity value (Sprague Dawley rats [5]; 400 ppm NO gas supplied to the dialysate, compared to control group (N2), after 4 hours): significantly lower | amount of residual blood Hb (Sprague Dawley rats [5]; 800 ppm NO gas supplied to the dialysate): significantly lower | residual blood LDH activity value (Sprague Dawley rats [5]; 800 ppm NO gas supplied to the dialysate, compared to control group (N2), after 4 hours): significantly lower | residual blood LDH activity value (Sprague Dawley rats [5]; as the NO concentration was higher (200 to 800 ppm)): lower value | NO concentration at which the residual blood LDH activity value was 0 U/L (Sprague Dawley rats [5]; [11]): 6 µM | Met-Hb (Sprague Dawley rats [6]; 800 ppm NO gas): ≤ 10% | adverse event (Sprague Dawley rats [6]; NO gas of 200 ppm to 800 ppm supplied to the dialysate): no adverse event occurred | Met-Hb (Sprague Dawley rats [6]; all NO-added groups (200 ppm to 800 ppm)): less than 10% | NO concentration at which the 4-hour circulation achievement rate was 100% (Sprague Dawley rats [7]; [11]): 5.4 µM | 4-hour circulation achievement rate (Sprague Dawley rats [7]; 800 ppm compared with 200 ppm and 400 ppm): higher | 4-hour circulation achievement rate (Sprague Dawley rats [7]; as the concentration of NO gas supplied to the dialysate was higher (200, 400, 800 ppm)): increased | amount of increase in NO concentration in blood (Sprague Dawley rats [8]): about 3 μM
